According to PubChem BioAssay (NCI):
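Five compound concentrations were applied to cells in 96-well plates for 48 hours; endpoints were derived by simple linear interpolation of the resulting dose-response curve. TGI: concentration producing complete growth inhibition.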

Legend:
Test in all cases: growth of human tumour cells (NCI), 48 h
UO-31 renal = tested on: UO-31 renal
OVCAR-8 ovarian = tested on: OVCAR-8 ovarian
A549 NSCLC = tested on: A549 NSCLC
NCI/ADR-RES ovarian = tested on: NCI/ADR-RES ovarian
RXF 393 renal = tested on: RXF 393 renal
HOP-62 NSCLC = tested on: HOP-62 NSCLC
HL-60(TB) leukemia = tested on: HL-60(TB) leukemia
MDA-MB-435 = tested on: MDA-MB-435
SK-MEL-5 melanoma = tested on: SK-MEL-5 melanoma
UACC-257 melanoma = tested on: UACC-257 melanoma
HS 578T breast = tested on: HS 578T breast
NCI-H460 lung = tested on: NCI-H460 lung
BT-549 breast = tested on: BT-549 breast
RPMI-8226 leukemia = tested on: RPMI-8226 leukemia
MOLT-4 leukemia = tested on: MOLT-4 leukemia
SR leukemia = tested on: SR leukemia

| Compound | TGI (UO-31 renal) | TGI (OVCAR-8 ovarian) | TGI (A549 NSCLC) | TGI (NCI/ADR-RES ovarian) | TGI (RXF 393 renal) | TGI (HOP-62 NSCLC) | TGI (HL-60(TB) leukemia) | TGI (MDA-MB-435) | TGI (SK-MEL-5 melanoma) | TGI (UACC-257 melanoma) | TGI (HS 578T breast) | TGI (NCI-H460 lung) | TGI (BT-549 breast) | TGI (RPMI-8226 leukemia) | TGI (MOLT-4 leukemia) | TGI (SR leukemia) |
| --- | --- | --- | --- | --- | --- | --- | --- | --- | --- | --- | --- | --- | --- | --- | --- | --- |
| Nc1nc(N)c2ncn(-c3ccc(Cl)cc3)c2n1 | > 100 µM | > 100 µM | > 100 µM | > 100 µM | 73.5 µM | > 100 µM | > 100 µM | > 100 µM | > 100 µM | > 100 µM | – | – | – | – | – | – |
| CCCCN1C(=O)N(c2ccc(OCC)cc2)C2N(CCCC)C1C(C)(C)C2(C)C (centres undefined) | 88.9 µM | > 100 µM | > 100 µM | 77.6 µM | 39.1 µM | > 100 µM | – | 97.3 µM | 67.7 µM | > 100 µM | 75.2 µM | > 100 µM | > 100 µM | 42 µM | – | – |
| O=c1[nH]nc(-c2ccccc2)c2[nH]c3c4ccccc4ccc3c12 | – | – | > 100 µM | – | > 100 µM | > 100 µM | > 100 µM | 0.673 µM | > 100 µM | > 100 µM | – | > 100 µM | – | 3.57 µM | > 100 µM | > 100 µM |
| NC(N)=N/N=C/c1c[nH]c2ccccc12 | > 100 µM | > 100 µM | > 100 µM | – | > 100 µM | > 100 µM | > 100 µM | – | > 100 µM | > 100 µM | – | > 100 µM | – | > 100 µM | > 100 µM | > 100 µM |
| O=Cc1c(C(=O)O)[nH]c(=O)[nH]c1=O | > 100 µM | > 100 µM | > 100 µM | > 100 µM | > 100 µM | – | > 100 µM | > 100 µM | > 100 µM | > 100 µM | > 100 µM | > 100 µM | > 100 µM | > 100 µM | > 100 µM | – |
| CC1OC(OC2C(O[C@H]3CC[C@@]4(C)C(=CC[C@H]5[C@@H]6C[C@@H]7O[C@]8(CC[C@@H](CO)CO8)[C@@H](C)[C@@H]7[C@@]6(C)CC[C@@H]54)C3)OC(CO)C(O)C2OC2OC(CO)C(O)C(O)C2O)C(O)C(O)C1O (some centres undefined) | 5.46 µM | 3.46 µM | 4.48 µM | 3.76 µM | 3.01 µM | 3.21 µM | 2.8 µM | 3.48 µM | 3.11 µM | 3.24 µM | 8.06 µM | 3.18 µM | – | 3.92 µM | – | – |
| O=C1CCC(c2ccc(Cl)cc2)=NN1c1nsc2ccccc12 | 59.1 µM | > 100 µM | > 100 µM | – | 59.6 µM | > 100 µM | 46.3 µM | – | – | 68.8 µM | – | > 100 µM | – | 42.6 µM | 53.2 µM | 54.8 µM |
| COc1ccc(C(=C(Cl)c2ccccc2)c2ccc(OC)cc2)cc1 | > 100 µM | > 100 µM | > 100 µM | > 100 µM | > 100 µM | > 100 µM | > 100 µM | > 100 µM | > 100 µM | > 100 µM | > 100 µM | > 100 µM | > 100 µM | > 100 µM | > 100 µM | – |
